Test results taken from patent US20110197288A1, “Transgenic animal for screening of compounds that modulate cell proliferation, and its use in the pharmaceutical field” (priority 2009, published 2011).

Experiments:
bone marrow cells [1] = assay: cell cycle phase analysis of bone marrow cells by FACS with propidium iodide staining; assay type: in vivo, mouse; settings: bone marrow cells from 5FU treated mice, vehicle 11.2%, FIG. 8B
Procedure: (§1) As an example of application for development of anti-proliferative drugs, heterozygous individuals of the transgenic mouse line according to the invention were treated as follows: a first group was treated with 150 ug/kg 5-fluorouracil (5FU), a well-known chemotherapeutic agent, while another group was treated with saline as control (vehicle) for 2 and 5 days.
Cells were fixed with methanol acetone 4:1, stained with 0.1 mg/ml propidium iodide, a DNA fluorescent marker, and then subjected to FACS analysis.

[2] = system: cell proliferation (luciferase reporter under CYCB2 promoter) in tissues; assay: luciferase activity in tissue protein extracts of treated CYCB2-luciferase transgenic mice; assay type: in vivo, mouse; settings: 150 ug/kg 5FU, 2 and 5 days, all tissues analysed, versus saline vehicle; FIG. 7
Procedure: For this purpose, organs were homogenized in lysis buffer and lysates were subjected to three cycles of freezing and thawing. Proteins were separated from DNA and lysosomes by centrifugation (13000×g for 30 min). After determining the protein concentration of the extract, the biochemical assay of luciferase activity was carried out by measuring luminescence emission with a luminometer. The relative luminescence units (RLU) determined during a measurement of 10 seconds were then expressed on the Y axis as RLU values per microgram protein. The results according to the graph in FIG. 2C indicate that, in the adult animal, light emission is restricted to organs characterized by basal homeostatic proliferation such as spleen, bone marrow, femur and sternum, or sites of active tissue remodeling in the mouse, such as joints of the feet, jaw, etc.
as §1
Mice were sacrificed and luciferase activity was evaluated in tissue protein extracts, as reported in the graph in FIG. 7.

bone marrow cells [3] = assay: luciferase expression (RLU per microgram protein) in bone marrow cells of treated transgenic mice; assay type: in vivo, mouse; settings: 5 day 5FU treatment, FIG. 8A
Procedure: To assess the expression of luciferase in proliferating progenitor cells, bone marrow cells, that are highly enriched in hematopoietic precursors, were collected by flushing the femurs with culture medium and enzyme activity was analyzed in protein extracts (Ciana et al 2001), as shown in the graph in FIG. 3A.
as §1

[4] = system: skin of transgenic mouse (luciferase reporter under CYCB2 promoter); assay: skin light emission imaging after cutaneous application of carcinogen to transgenic mouse; settings: 0.24% DMBA solution in acetone on skin, day 7 relative to day 0; FIG. 9
Procedure: To evaluate this application, the skin of a transgenic mouse according to the invention was treated with DMBA, a carcinogen, and the stimulation of light emission was measured for the carcinogen-treated side compared to the side treated with vehicle alone.
In particular, a 0.24% DMBA solution in acetone was applied to the skin of transgenic individuals according to the invention. One week later (day 7 relative to day 0) the amount of luciferase produced was detected by measuring the light emission produced by the skin of the animals.

SMILES | S phase cells (bone marrow cells [1]) [%] | luciferase activity in tissue protein extracts [2] | luciferase expression in bone marrow cells (bone marrow cells [3]) | induction of luciferase activity (light emission) versus region treated with vehicle alone [4] [fold]
O=c1[nH]cc(F)c(=O)[nH]1 [5FU, 5-fluorouracil] | 1.97 | Reduced luciferase activity, until levels that were undetectable | reduced luciferase expression | 
Cc1c2ccccc2c(C)c2c1ccc1ccccc12 [DMBA, 7,12-dimethylbenz(a)anthracene] |  |  |  | 12.5
